Measurements taken from patent US9149791B2, “Water-soluble carbohydrate polyethers” (TRGel, LLC, priority 2008, dated 2015).

Experiment: Solubility of monomers and polymers in water and organic solvents
Format: physicochemical
Description: The DM trgel monomers as prepared by the methods exemplified in Examples 1-5 above were converted to polymers by the anionic polymerization reaction as illustrated in Reaction Scheme A and the physical properties of homopolymers of differing monomers are presented in Table 1. With reference to Table 1 it should be noted that all of the resulting polymers have very low poly dispersity (Mw/Mn). […] All trgel monomers can be copolymerized randomly or in blocks. Copolymerization of water-soluble and water insoluble monomers results in polymers with controlled solubility in water, including gel forming polymers. Water-soluble polymers are particularly useful in biological applications such as surface protection from non-specific adsorption. The data also illustrates that the glass transition temperature (Tg) of polymers with alkyl substituents decreases as the alkyl chain length increases. […] The DM trgel polymers wherein R=2-methoxyethyl or R=2-(2-methoxyethoxyethyl) show lower critical solution temperature (LCST) behavior.

COCCOCCOCCOC1C2COC(O2)C2OC12 [Monomer T, 1,6:2,3-dianhydro-4-O-(2-(2-(2-metoxyethoxy)ethoxy)ethyl)-β-D-mannopyranose]
Solubility in water: soluble

CCCCCCCCCCO[C@H]1[C@@H]2O[C@@H]2[C@@H]2OC[C@H]1O2 [DDM, 1,6:2,3-dianhydro-4-O-decyl-β-D-mannopyranose]
Solubility in hexane (hexane): soluble

COCCOC1C2COC(O2)C2OC12 [MEDM, 1,6:2,3-dianhydro-4-O-(2-methoxyethyl)-β-D-mannopyranose]
Solubility in water: soluble
